Tests used:
[1] = target: T1, cloned human NE transporter (hNET) (Homo sapiens, UniProt P23975); test: NE transporter binding assay, [3H]nisoxetine
T1 construct: expressed in transfected cells; host or cells: CHO cells
Procedure: Protocols. For the NE transporter binding assay, [^3H]nisoxetine (1.0 nM) was incubated with various concentrations of test compounds for 2 hours at 4° C. with membranes prepared from Chinese hamster ovary cells (CHO) cells heterologously expressing the cloned human NE transporter (hNET). Bound radioactivity was determined by scintillation spectroscopy.

[2] = target: T2, cloned human 5HT2A receptor (Homo sapiens, UniProt P28223); test: 5HT2A receptor binding assay, [3H]ketanserin; conditions: HEK-293 membranes
T2 construct: expressed in transfected cells; host or cells: HEK-293 cells
T2 sequence (P28223 whole entry): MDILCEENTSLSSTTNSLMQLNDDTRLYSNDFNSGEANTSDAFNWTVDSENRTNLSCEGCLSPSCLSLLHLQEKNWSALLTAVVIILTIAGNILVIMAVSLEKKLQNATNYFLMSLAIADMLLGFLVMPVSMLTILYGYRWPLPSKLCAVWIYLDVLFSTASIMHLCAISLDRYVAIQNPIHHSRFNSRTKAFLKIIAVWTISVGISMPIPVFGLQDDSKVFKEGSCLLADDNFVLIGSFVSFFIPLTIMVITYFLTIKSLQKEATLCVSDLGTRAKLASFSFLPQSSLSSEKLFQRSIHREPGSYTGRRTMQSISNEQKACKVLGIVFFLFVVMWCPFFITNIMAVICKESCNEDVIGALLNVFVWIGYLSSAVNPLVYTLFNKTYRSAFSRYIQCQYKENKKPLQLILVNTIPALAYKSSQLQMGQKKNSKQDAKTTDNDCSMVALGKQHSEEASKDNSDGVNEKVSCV
Procedure: For the 5HT2A receptor binding assay, [^3H]ketanserin (0.5 nM) was incubated for 60 min at 22° C. with membranes prepared from HEK-293 cells heterologously expressing the cloned human 5-HT2A receptor according to the method of Bonhaus et al., 1995, Brit. J. Pharmacol. 115:622-628. Various concentrations of test compound were added and bound radioactivity was determined by scintillation counting. Non-specific binding was determined in the presence of 1.0 μM unlabeled ketanserin. The Ki value for the test compound was determined using standard methods.

[3] = target: T3, cloned human 5HT2B receptor (Homo sapiens, UniProt P41595); test: 5HT2B receptor binding assay, [125I]DOI; conditions: CHO membranes
T3 construct: expressed in transfected cells; host or cells: CHO cells
T3 sequence (P41595 whole entry): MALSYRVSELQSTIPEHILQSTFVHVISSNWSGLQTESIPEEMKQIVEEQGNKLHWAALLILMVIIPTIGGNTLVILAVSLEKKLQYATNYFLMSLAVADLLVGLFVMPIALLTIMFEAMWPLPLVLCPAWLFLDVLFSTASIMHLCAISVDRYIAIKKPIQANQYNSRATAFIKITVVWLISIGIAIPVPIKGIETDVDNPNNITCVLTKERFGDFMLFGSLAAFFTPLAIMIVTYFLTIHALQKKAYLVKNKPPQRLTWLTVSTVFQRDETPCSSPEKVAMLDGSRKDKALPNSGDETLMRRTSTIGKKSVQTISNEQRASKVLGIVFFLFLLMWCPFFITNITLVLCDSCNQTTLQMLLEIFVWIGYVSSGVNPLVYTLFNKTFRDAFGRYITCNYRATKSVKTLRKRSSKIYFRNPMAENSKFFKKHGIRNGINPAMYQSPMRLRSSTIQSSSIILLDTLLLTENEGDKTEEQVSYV
Procedure: For the 5HT2B receptor binding assay, [^125I](±)[…] (DOI) (0.2 nM) was incubated for 15 min at 37° C. with membranes prepared from Chinese hamster ovary cells heterologously expressing the cloned human 5HT2B receptor according to the method of Choi et al., 1994, FEBS Lett 352:393-399. Various concentrations of test compound were added and bound radioactivity was determined by scintillation counting. Non-specific binding was determined in the presence of 1.0 μM unlabeled DOI. The Ki value for the test compound was determined using standard methods.

[4] = target: T4, cloned human 5HT2C receptor (Homo sapiens, UniProt P28335); test: 5HT2C receptor binding assay, [3H]mesulergine; conditions: CHO membranes
T4 construct: expressed in transfected cells; host or cells: CHO cells
T4 sequence (P28335 33-458): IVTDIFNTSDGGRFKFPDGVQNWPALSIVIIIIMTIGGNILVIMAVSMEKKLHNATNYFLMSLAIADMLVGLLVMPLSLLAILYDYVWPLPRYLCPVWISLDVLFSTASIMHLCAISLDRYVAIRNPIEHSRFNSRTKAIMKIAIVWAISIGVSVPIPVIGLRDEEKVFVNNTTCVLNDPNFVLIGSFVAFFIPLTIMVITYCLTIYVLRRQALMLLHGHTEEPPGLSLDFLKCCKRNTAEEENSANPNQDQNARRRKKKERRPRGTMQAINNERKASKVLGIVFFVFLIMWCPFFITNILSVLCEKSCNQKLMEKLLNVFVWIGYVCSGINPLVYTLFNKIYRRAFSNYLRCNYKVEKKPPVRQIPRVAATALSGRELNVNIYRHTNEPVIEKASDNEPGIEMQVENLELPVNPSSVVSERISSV
Procedure: For the 5HT2C receptor binding assay, [^3H]mesulergine (1.0 nM) was incubated for 60 min at 37° C. with membranes prepared from Chinese hamster ovary cells heterologously expressing the cloned human 5-HT2C receptor according to the method of Stam et al., 1994, Eur. J. Pharmacol. 269:339-348. Various concentrations of test compound were added and bound radioactivity was determined by scintillation counting. Non-specific binding was determined in the presence of 10 μM RS102221. The Ki value for the test compound was determined using standard methods.

human recombinant CYP2D6 = target: T5, human recombinant CYP2D6 (Homo sapiens, UniProt P10635); test: CYP2D6 inhibition, MAMC substrate; type: in vitro ADME
T5 construct: purchased BD Bioscience
T5 sequence (P10635 whole entry): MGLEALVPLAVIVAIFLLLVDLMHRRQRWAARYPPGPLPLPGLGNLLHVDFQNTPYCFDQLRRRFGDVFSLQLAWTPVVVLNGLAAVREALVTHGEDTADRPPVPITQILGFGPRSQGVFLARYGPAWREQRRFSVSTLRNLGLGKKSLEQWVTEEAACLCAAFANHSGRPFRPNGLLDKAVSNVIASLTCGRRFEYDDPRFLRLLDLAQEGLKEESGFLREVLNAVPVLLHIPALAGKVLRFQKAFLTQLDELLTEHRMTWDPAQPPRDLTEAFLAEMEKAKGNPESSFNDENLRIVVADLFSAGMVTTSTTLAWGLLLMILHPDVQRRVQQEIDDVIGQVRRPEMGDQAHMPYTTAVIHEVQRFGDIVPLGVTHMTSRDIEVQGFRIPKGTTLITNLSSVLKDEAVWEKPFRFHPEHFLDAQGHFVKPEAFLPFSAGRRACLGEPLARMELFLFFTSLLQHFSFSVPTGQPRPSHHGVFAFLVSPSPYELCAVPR
Procedure: Protocol. […] The source of the enzyme was microsomes containing human recombinant CYP2D6 obtained from BD Bioscience. Conversion of MAMC to 7-hydroxy-4-(aminomethyl)coumarin was measured using a PerkinElmer Fusion with a 390 nm excitation filter and a 460 nm emission filter.

L5 SNL rats = test: L5 Single Nerve Ligation model of neuropathic pain, tactile allodynia (von Frey); type: in vivo, rat
Procedure: Protocol. The antiallodynic activity of (−)-beloxepin was tested in vivo using the L5—Single Nerve Ligation model of non-nociceptive neuropathic pain as described in LaBuda & Little, 2005, J. Neurosci. Methods 144:175-181. The test animals were placed in a Plexiglas chamber (10 cm×20 cm×25 cm) and habituated for 15 minutes. The chamber was positioned on top of a mesh screen so that von Frey monofilaments could be presented to the plantar surface of both hindpaws. Measurement of tactile sensitivity for each hind paw were obtained using the up/down method (Dixon, 1980, Annu. Rev. Pharmacol. Toxicol. 20:441-462) with seven Frey monofilaments (0.4, 1, 2, 4, 6, 8 and 15 grams). Each trial started with a von Frey force of 2 grams delivered to the right hind paw for approximately 1-2 seconds and then the left hind paw. If there was no withdrawal response, the next higher force was delivered. If there was a response, the next lower force was delivered. This procedure was performed until no response was made at the highest force (15 grams) or until four stimuli were administered following the initial response. The 50% paw withdrawal threshold for each paw was calculated using the following formula: [Xth]log=[vFr]log+ky, where [vFr] is the force of the last von Frey used, k=0.2249 which is the average interval (in log units) between the von Frey monofilaments, and y is a value that depends upon the pattern of withdrawal responses (Dixon, 1980, supra). […] Testing for tactile sensitivity was performed twice and the mean 50% withdrawal value assigned as the tactile sensitivity for the right and left paws for each animal.
Results. The antiallodynic effects produced by (−)-beloxepin (30 mg/kg IP) and (+)-beloxepin (30 mg/kg IP) in L5 SNL rats 8 days post surgery are illustrated in FIG. 1. In this experiment, at 8 days post surgery, rats were treated with vehicle or beloxepin enantiomers (30 mg/kg IP) and tested for tactile allodynia at 30 min post treatment. […] No side effects were observed following treatment with either enantiomer.
The antiallodynic effects produced by (−)-beloxepin (30 mg/kg IP) in L5 SNL rats 14 days post surgery are illustrated in FIG. 2. In this experiment, at 14 days post surgery, rats were treated with vehicle or (−)-beloxepin and tested for tactile allodynia at 30, 60, 120 and 240 min post treatment. Vehicle treated rats were tested at 30 min post treatment.
Protocol. A time course experiment was performed with (−)-beloxepin (60 mg/kg PO) in L5 SNL rats at 7 days post-surgery. Rats were tested at 30, 60, 120, and 240 minutes post-drug.
Protocol. A time course experiment was also performed with (+)-beloxepin (60 mg/kg PO) in L5 SNL rats at 14 days post-surgery. Rats were tested at 30, 60, 120, and 240 minutes post-drug.

[5] = tested on: rat hindpaw incision model; test: rat hindpaw incisional pain model, tactile allodynia; type: in vivo; conditions: 30 mg/kg IP, 24 hours post-surgery
Procedure: Protocol. A time course experiment was also performed with (−)-beloxepin in the hindpaw incision model. At 24 hours post-surgery, rats received vehicle or (−)-beloxepin (30 mg/kg IP). Rats were tested for tactile allodynia at 30, 60, 120 and 240 minutes after administration of (−)-beloxepin.
Protocol. Another time course experiment was performed with (+)-beloxepin in the hindpaw incision model. At 24 hours post-surgery, rats received vehicle or (+)-beloxepin (30 mg/kg IP). Rats were tested for tactile allodynia at 30, 60, 120 and 240 minutes after administration of (+)-beloxepin.

[6] = tested on: rat 50° C. hot plate model; test: rat 50° C. hot plate assay; type: in vivo; conditions: for level of antinociception, positive control: 3 mg/kg SC, 30 min
Procedure: Protocol. Rats were treated with vehicle, 30 mg/kg IP of (−)-beloxepin, or 30 mg/kg IP of (+)-beloxepin and then were placed on a hot plate (50° C.) 30, 60, or 120 minutes after administration of the vehicle or beloxepin enantiomer. Rats treated with 3 mg/kg SC of morphine and tested 30 min post-treatment were used as a positive control in these experiments.

[7] = tested on: pain intensity in study completers; conditions: cited from earlier work
[8] = 30 mg/kg IP, 8 days post surgery, 30 min post treatment

T1 sequence (P23975 whole entry): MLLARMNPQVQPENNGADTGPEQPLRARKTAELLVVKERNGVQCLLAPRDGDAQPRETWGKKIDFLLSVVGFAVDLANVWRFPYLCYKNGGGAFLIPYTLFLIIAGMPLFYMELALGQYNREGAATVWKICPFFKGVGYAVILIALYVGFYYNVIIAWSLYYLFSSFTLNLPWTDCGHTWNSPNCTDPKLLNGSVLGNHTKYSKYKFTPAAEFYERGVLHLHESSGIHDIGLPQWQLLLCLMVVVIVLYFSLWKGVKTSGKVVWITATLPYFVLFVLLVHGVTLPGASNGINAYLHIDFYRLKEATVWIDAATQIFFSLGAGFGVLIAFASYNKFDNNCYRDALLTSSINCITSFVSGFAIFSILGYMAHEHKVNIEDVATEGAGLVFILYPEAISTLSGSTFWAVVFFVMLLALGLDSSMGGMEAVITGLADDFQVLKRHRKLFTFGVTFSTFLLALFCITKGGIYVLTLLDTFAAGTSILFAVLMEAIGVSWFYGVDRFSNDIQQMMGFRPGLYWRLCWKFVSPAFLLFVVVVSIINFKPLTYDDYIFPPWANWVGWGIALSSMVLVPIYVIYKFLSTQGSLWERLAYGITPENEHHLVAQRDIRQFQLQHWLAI

With `Cc1cccc2c1Oc1ccccc1C1(O)CCN(C)CC21` (single isomer, unassigned; (-)) [(−)-beloxepin] as the compound, how does the “higher affinity at the NET than the (+) enantiomer” value ([1]; (−) vs (+) enantiomer) read?
Its value is “approximately 8 fold”.

And the Ki ([1]; membranes of CHO cells expressing hNET, read-out: NET Ki)?
The Ki was 390 nM.

What about the Ki [2] of the same compound?
Its Ki is over 10 µM.

And the Ki [3]?
Its Ki is over 10 µM.

What about the Ki [4] of the same compound?
The Ki was over 10 µM.

And the IC50 (human recombinant CYP2D6)?
The IC50 was 4.37 µM.

And the “antiallodynia, % of the threshold of vehicle-treated L5 SNL rats” value (L5 SNL rats; [8])?
The value was 444%.

And the “antiallodynic effect” value (L5 SNL rats; [8])?
Its value is “significant antiallodynia”.

And the “maximal efficacy, % of the threshold of vehicle-treated rats” value (L5 SNL rats; 30 mg/kg IP, 14 days post surgery)?
The value was 635%.

What about the “antiallodynic effect” value (L5 SNL rats; 30 mg/kg IP, 14 days post surgery, tested 30, 60, 120, 240 min) of the same compound?
The value was “significant antiallodynic effects at the 30 and 60 min time points”.

What about the “antiallodynic effect” value (L5 SNL rats; 60 mg/kg PO, 7 days post-surgery, tested 30, 60, 120, 240 min) of the same compound?
Its value is “significant antiallodynic effects at the 60 and 120 minute time points”.

And the “hindpaw withdrawal threshold, % of the threshold value for vehicle treated rats” value ([5]; 30 minute time point)?
The value was 426%.

What about the “maximum hindpaw withdrawal threshold” value ([5]; 30 minute time point) of the same compound?
Its value is about 19 grams.

What about the “antiallodynic effect” value ([5]; tested 30, 60, 120, 240 min) of the same compound?
Its value is “significant antiallodynic effect at the 30 and 120 minute time point”.

And the “antinociceptive activity” value ([6]; 30 mg/kg IP, 30, 60, 120 min)?
Its value is “robust antinociceptive activity at 30, 60, and 120 minutes after treatment”.

And the peak antinociception ([6]; 30 mg/kg IP, 30 min post-treatment)?
Its peak antinociception is 79±10 % MPE.

With `Fc1ccc([C@@H]2CCNC[C@H]2COc2ccc3c(c2)OCO3)cc1` [paroxetine] as the compound, how does the “reduction in pain intensity” value [7] read?
Its value is 26%.

With `CNCCCC12CCC(c3ccccc31)c1ccccc12` [maprotiline] as the compound, how does the “reduction in pain intensity” value [7] read?
Its value is 45%.

With `CN1CC[C@]23c4c5ccc(O)c4O[C@H]2[C@@H](O)C=C[C@H]3[C@H]1C5` [morphine, reference compound] as the compound, how does the “level of antinociception, positive control” value (shortened to “level of antinociception”) ([6]; 'in these experiments') read?
Its value is 61±7 % MPE.

What about the “level of antinociception” value ([6]; (+)-beloxepin experiment (FIG. 8)) of the same compound?
Its value is 85±7 % MPE.

And the “level of antinociception” value ([6]; (−)-beloxepin experiment (FIG. 7))?
Its value is 65±11 % MPE.

Source: patent US20090233957A1, “(-)-BELOXEPIN AND METHODS FOR ITS SYNTHESIS AND USE” (priority 2008, published 2009)
